Reference: publication PMC4975464, “FITC Conjugation Markedly Enhances Hepatic Clearance of N-Formyl Peptides” (PLoS ONE, 2016)

Tests used:
[1] = tested on: mouse LSECs (mLSECs); experiment: Endocytosis competition of FITC-fNLPNTL uptake, fluorescence microscopy; assay type: cell-based; details: primary mLSECs, 4 h serum starved, 100 μg/ml competitor pre-incubated 30 min, then 20 μg/ml FITC-fNLPNTL 60 min at 37°C
Description: Mouse Heps (mHeps) and LSECs (mLSECs) were prepared by collagenase (Liberase) perfusion of mouse livers, followed by a low-speed differential centrifugation to separate Heps, and density sedimentation of the non-Heps enriched in the supernatant, on 25%– 45% Percoll gradients to collect LSECs and Kupffer cells (KCs), as described. Mouse LSECs were obtained after a panning step of 8 min at 37°C to remove KCs. The purity of mLSECs was between 90 and 95% as judged by fenestration assessed by scanning electron microscopy and positive immunostaining for the LSEC specific marker, stabilin 2. The remaining 5–10% of cells in these cultures represented KCs/monocytes and stellate cells. […]
(§1) Primary cultures of mouse and human Heps and LSECs were seeded on Permanox chamber slides coated with human fibronectin. […] After removal of unbound ligand by extensive washing with PBS, the cultures were fixed with 4% PFA and processed for fluorescence microscopy as described above.
(§2) After the removal of unbound ligands by extensive washing with PBS, the cultures were fixed with 4% PFA and processed for fluorescence microscopy.
(§3) Primary cultures of hLSECs (A) and mLSECs (B) were established on Permanox chamber slides coated with human fibronectin. […] After removal of unbound ligands by extensive washing with PBS, the cultures were fixed with 4% PFA and processed for fluorescence microscopy.

[2] = tested on: human LSECs (hLSECs); experiment: as above; assay type: cell-based; details: primary hLSECs, 4 h serum starved, 100 μg/ml competitor pre-incubated 30 min, then 20 μg/ml FITC-fNLPNTL 60 min at 37°C
From the text: Human hepatocytes (hHeps) and LSECs (hLSECs) were isolated from encapsulated liver resections based on a method described elsewhere. The procedure involves collagenase perfusion through cut blood vessels exposed on the surface of the liver resection. hHeps were isolated by low speed differential centrifugation, and the hLSECs purified by immunomagnetic isolation using mouse anti-human CD32 (Fitzgeralg Industries International INC, North Acton, MA, USA) and Dynabeads® Sheep anti-mouse IgG (Thermo Scientific, Oslo, Norway). The viability of hLSECs as judged by trypan blue exclusion was 95%, and the yield of hLSECs varied from 1 to 10 million depending on the size of the liver resection. […]
as §1, §2, §3

[3] = Anatomical distribution of i.v. injected 125I-labeled peptides; assay type: in vivo; details: C57BL/6 mice, 8 μg 125I-labeled peptide i.v., n = 2 per group
Description: Unconjugated fNLPNTL and FITC- fNLPNTL were reconstituted at a concentration of 4 mg/ml in DMSO. […] of the solution, corresponding to 100 μg of each peptide was further diluted in PBS to a final volume of 200 μl and incubated with carrier-free Na^125I for 1h at RT, using Iodogen as described by the manufacturer. The labeled peptides were separated from unbound ^125I by elution with PBS through PD-10 columns. The specific radioactivities were 0.98 x 10^6 cpm/μg and 0.12 x 10^6 cpm/μg for ^125I-FITC-fNLPNTL and ^125I-fNLPNTL, respectively.
Prior to experiments, mice were weighed and pre-warmed in a temperature controlled chamber to stimulate dilation of the tail veins. […] The amount of radioactivity was measured in all organs and in the blood sample. The radioactivity per total volume of blood was calculated considering that the average amount of blood in a mouse is approximately 58.5 ml per kg of bodyweight (according to the National Centre for the Replacement Refinement & Reduction of Animals in Research). The amount of tracer recovered was the sum of radioactivity of individual organs, carcass and the radioactivity calculated in total blood volume.
Fig 2 Anatomical distribution of i.v. administered fNLPNTL. […] Blood, internal organs and carcass were harvested and analyzed for radioactivity. […]

[4] = tested on: mouse Heps (mHeps); experiment: Endocytosis competition of FITC-fNLPNTL uptake, fluorescence microscopy; assay type: cell-based; details: primary mHeps, 4 h serum starved, 100 μg/ml competitor pre-incubated 30 min, then 20 μg/ml FITC-fNLPNTL 60 min at 37°C
[5] = tested on: human hepatocytes (hHeps); experiment: as above; assay type: cell-based; details: primary hHeps, 4 h serum starved, 100 μg/ml competitor pre-incubated 30 min, then 20 μg/ml FITC-fNLPNTL 60 min at 37°C
From the text: Human hepatocytes (hHeps) and LSECs (hLSECs) were isolated from encapsulated liver resections based on a method described elsewhere. The procedure involves collagenase perfusion through cut blood vessels exposed on the surface of the liver resection. hHeps were isolated by low speed differential centrifugation, and the hLSECs purified by immunomagnetic isolation using mouse anti-human CD32 (Fitzgeralg Industries International INC, North Acton, MA, USA) and Dynabeads® Sheep anti-mouse IgG (Thermo Scientific, Oslo, Norway). The viability of hLSECs as judged by trypan blue exclusion was 95%, and the yield of hLSECs varied from 1 to 10 million depending on the size of the liver resection. The purity of the hLSECs isolation was between 85 and 95%, as judged by light microscopy. This variation in purity is due to donor variation. […]
as §1, §2

Row | Substance | inhibition of uptake of FITC-fNLPNTL in mLSECs by competitor [1] | inhibition of uptake of FITC-fNLPNTL in hLSECs by competitor [2] | uptake in the liver compared to that of native fNLPNTL ([3]; 30 min post injection) | major organ of uptake ([3]; organs analysed 30 min post injection after systemic perfusion, radioactivity as % of total recovered) | inhibition of uptake of FITC-fNLPNTL in mHeps by competitor [4] | inhibition of uptake of FITC-fNLPNTL in hHeps by competitor [5]
1 | FSA: Formaldehyde-treated bovine serum albumin, ligand specifically endocytosed by the LSECs scavenger receptors | inhibited | inhibited | – | – | – | –
2 | Fluorescein-isothiocyanate- N-Formyl-Nle-Leu-Phe-Nle-Tyr-Lys [FITC-fNLPNTL, fluorescein isothiocyanate derivative of fNLPNTL from Thermo Scientific] | – | – | three-fold higher | liver | – | –
3 | N-Formyl-Nle-Leu-Phe-Nle-Tyr-Lys [fNLPNTL, N-formyl peptide purchased from Phoenix Pharmaceuticals] | less marked effect | less marked effect | – | – | blocked | blocked
